Consider 12 compounds from ChEMBL document CHEMBL1201862, “PubChem BioAssay data set” (2004).

Structures are written as SMILES.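 All cell lines were grown in 96-well plates and treated with compound for 48 hours. GI50 = concentration required for 50% inhibition of growth.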 Activity calls are given as the source filed them. No stated cut-off is given here; in the data, active = GI50 up to about 1.1 µM and inactive = higher.

Among the test systems are CCRF-CEM; HCT-116; HCT-15; HT-29; KM-20L2; MOLT-4; NCI-H522; OVCAR-3; OVCAR-5; OVCAR-8; SF-539; SK-MEL-28; SK-OV-3; SNB-19; SNB-75; SR; TK-10; CAKI-1.
Holding throughout (test): inhibition of tumour cell growth, NCI panel, 48 h

Take `O=C1C(c2ccc(Cl)cc2)=[N+]([O-])c2ccccc21`: the GI50 in the assay on CCRF-CEM is 4.36 µM (inactive); with HCT-116 it was 14.4 µM (inactive); in the assay on HCT-15, 11.4 µM; in the assay on HT-29 it was 19.8 µM (inactive); with KM-20L2 it was 25.4 µM (inactive); with MOLT-4, 12.4 µM (inactive). Also, the GI50 in the assay on NCI-H522 was 10 µM (inactive); in the assay on OVCAR-3, 13.6 µM (inactive); with OVCAR-5, 22.9 µM (inactive); in the assay on OVCAR-8, 10.7 µM (inactive); in the assay with SF-539 it was 21 µM (inactive); with SK-MEL-28, 14.9 µM (inactive). In addition, the GI50 in the assay on SK-OV-3 was > 100 µM (inactive); in the assay with SNB-19 it was 23.3 µM (inactive); with SNB-75, 21.4 µM (inactive); in the assay with SR, 20.2 µM (inactive); with TK-10, 16.3 µM (inactive).
On to `O=C(c1ccccc1)c1ccc(OCCOc2ccc(Nc3ccccc3)cc2)cc1`, for which the GI50 with CAKI-1 was 47.3 µM (inactive); with CCRF-CEM it was > 100 µM (inactive); with HCT-116 it was 69.2 µM (inactive); in the assay with HCT-15, 74.6 µM; with KM-20L2, > 100 µM (inactive); with MOLT-4 it was > 100 µM (inactive). Moreover, the GI50 in the assay with NCI-H522 is 17.8 µM (inactive); in the assay with OVCAR-3, 37.2 µM (inactive); in the assay with OVCAR-5, > 100 µM (inactive); in the assay on OVCAR-8 it was 32.4 µM (inactive); in the assay on SF-539, 24.5 µM (inactive); in the assay on SK-MEL-28 it was 73.3 µM (inactive). For the same compound, the GI50 is 22.9 µM (inactive) in the assay with SK-OV-3; 27.7 µM (inactive) in the assay on SNB-19; 15.6 µM (inactive) in the assay with SNB-75; > 100 µM (inactive) in the assay with SR; 28.6 µM (inactive) with TK-10.
As for `O=[N+]([O-])c1ccc(-c2ccc(C3=Nn4c(nnc4-c4ccc(Cl)cc4)SC3)o2)cc1`, the GI50 is > 100 µM (inactive) in the assay on CAKI-1; > 100 µM (inactive) in the assay with CCRF-CEM; 45 µM (inactive) in the assay with HCT-116; over 92.5 µM in the assay with HCT-15; > 100 µM (inactive) with HT-29; > 100 µM (inactive) with KM-20L2. Also, the GI50 with MOLT-4 is > 100 µM (inactive); in the assay with NCI-H522, > 89.3 µM (inactive); in the assay with OVCAR-3, 94.8 µM (inactive); in the assay on OVCAR-5, > 100 µM (inactive); with OVCAR-8, > 92 µM (inactive); in the assay with SF-539 it was > 100 µM (inactive). The GI50 in the assay with SK-MEL-28 was > 100 µM (inactive); in the assay on SK-OV-3, > 82.4 µM (inactive); in the assay on SNB-19 it was 30.3 µM (inactive); with SNB-75 it was 25.4 µM (inactive); in the assay on SR, > 100 µM (inactive); in the assay on TK-10, 23.4 µM (inactive).
`CC(=O)CC(N)=O`: the GI50 with CAKI-1 is > 100 µM (inactive); with CCRF-CEM it was > 100 µM (inactive); in the assay with HCT-116, > 100 µM (inactive); in the assay on HCT-15 it was over 100 µM; in the assay with HT-29, > 100 µM (inactive); in the assay on KM-20L2 it was > 100 µM (inactive). The GI50 in the assay on MOLT-4, in the assay on NCI-H522, in the assay with OVCAR-3, in the assay on OVCAR-5, in the assay with OVCAR-8 and in the assay with SF-539 was > 100 µM (inactive) throughout. Also, the GI50 in the assay with SK-MEL-28, in the assay on SK-OV-3, in the assay on SNB-19, in the assay with SNB-75, in the assay on SR and in the assay with TK-10 was > 100 µM (inactive) each time.
Regarding `O=C(c1nc2ccccc2nc1O)C(O)c1ccccc1` (stereo not drawn), the GI50 with CAKI-1 is > 100 µM (inactive); in the assay with CCRF-CEM, 32.7 µM (inactive); in the assay with HCT-116, > 100 µM (inactive); with HCT-15, 96.2 µM; with HT-29, > 100 µM (inactive); in the assay with KM-20L2, 46.5 µM (inactive). For the same compound, the GI50 with MOLT-4 is 64.9 µM (inactive); in the assay with NCI-H522 it was 22.2 µM (inactive); with OVCAR-3 it was > 100 µM (inactive); in the assay with OVCAR-5, > 100 µM (inactive); in the assay on OVCAR-8, > 100 µM (inactive); with SF-539, 44.1 µM (inactive). The GI50 is 29.8 µM (inactive) in the assay on SK-MEL-28; > 100 µM (inactive) in the assay on SK-OV-3; > 100 µM (inactive) in the assay on SNB-19; 86.1 µM (inactive) in the assay on SR; > 100 µM (inactive) in the assay with TK-10.
Take `O=S(O)CCCCCSSCCCCSSCCCCCS(=O)O`: the GI50 in the assay with CAKI-1 was > 100 µM (inactive); in the assay on CCRF-CEM, 41.2 µM (inactive); in the assay on HCT-15, over 100 µM; with HT-29, > 100 µM (inactive); in the assay with KM-20L2 it was > 100 µM (inactive); in the assay with MOLT-4 it was 33.8 µM (inactive). Besides, the GI50 in the assay on NCI-H522 was 64.9 µM (inactive); in the assay with OVCAR-3, > 100 µM (inactive); in the assay with OVCAR-5, > 100 µM (inactive); with OVCAR-8, > 100 µM (inactive); in the assay on SF-539, > 100 µM (inactive); in the assay with SK-MEL-28, > 100 µM (inactive). Besides, the GI50 was > 100 µM (inactive) in the assay on SK-OV-3, > 100 µM (inactive) in the assay on SNB-19, 30.8 µM (inactive) with SNB-75 and > 100 µM (inactive) in the assay on TK-10.
Regarding `Cc1ccc(NC(=O)CC2C(=O)Nc3ccccc3S2(=O)=O)c(C)c1` (stereo not drawn), the GI50 in the assay with CAKI-1 was 8.79 µM (inactive); with CCRF-CEM it was 16.4 µM (inactive); in the assay on HCT-116 it was 12.2 µM (inactive); in the assay with HCT-15, 8.32 µM; with HT-29 it was 13.5 µM (inactive); in the assay on KM-20L2 it was 13.8 µM (inactive). In addition, the GI50 is 7.33 µM (inactive) in the assay on MOLT-4; 10.9 µM (inactive) in the assay with NCI-H522; 14.1 µM (inactive) with OVCAR-3; 24.7 µM (inactive) with OVCAR-5; 18.2 µM (inactive) with OVCAR-8; 15.5 µM (inactive) in the assay on SF-539. The GI50 was 17 µM (inactive) in the assay with SK-MEL-28; 14 µM (inactive) with SNB-19; 15.2 µM (inactive) in the assay on SNB-75; 1.8 µM (inactive) with SR; 25.9 µM (inactive) in the assay on TK-10.
Take `CCOC(=O)NC(=O)c1cn(-c2ccc(CCOC(=O)CCCCCCCCC(=O)OCCc3ccc(-n4cc(C(=O)NC(=O)OCC)c(=O)[nH]c4=O)cc3)cc2)c(=O)[nH]c1=O`: the GI50 was > 100 µM (inactive) in the assay on CCRF-CEM; > 100 µM (inactive) with HCT-116; over 100 µM in the assay on HCT-15; > 100 µM (inactive) with HT-29; > 100 µM (inactive) in the assay with KM-20L2; > 100 µM (inactive) with MOLT-4. The GI50 in the assay with OVCAR-3, in the assay on OVCAR-5, with OVCAR-8, with SF-539, in the assay with SK-MEL-28 and in the assay with SK-OV-3 was > 100 µM (inactive) each time. Also, the GI50 in the assay with SNB-19 is 59 µM (inactive); in the assay with SR it was > 100 µM (inactive); in the assay on TK-10, 42.8 µM (inactive).
With `COc1c(CC(C)=O)c2ccccc2n1C(C)=O`, the GI50 in the assay on CAKI-1 is > 100 µM (inactive); with CCRF-CEM it was > 100 µM (inactive); in the assay with HCT-116, > 100 µM (inactive); in the assay on HCT-15, over 100 µM; in the assay with HT-29, > 100 µM (inactive); in the assay with KM-20L2 it was > 100 µM (inactive). Besides, the GI50 in the assay with MOLT-4, with OVCAR-3, with OVCAR-8, in the assay on SF-539, in the assay with SK-MEL-28 and in the assay on SK-OV-3 was > 100 µM (inactive) throughout. Moreover, the GI50 in the assay with SNB-19, in the assay on SNB-75 and in the assay on SR was > 100 µM (inactive) each time.
Turning to `CC(C)CN1CC(C)C(=O)NC1=O` (stereo not drawn), the GI50 in the assay on CAKI-1, in the assay on CCRF-CEM, in the assay on HT-29, in the assay with KM-20L2, in the assay with MOLT-4 and with NCI-H522 was > 100 µM (inactive) in each case. The GI50 in the assay on OVCAR-5, with OVCAR-8, in the assay on SF-539, in the assay with SK-MEL-28, in the assay on SK-OV-3 and with SNB-19 was > 100 µM (inactive) in each case. The GI50 with SR and in the assay with TK-10 was > 100 µM (inactive) in each case.
As to `COC1C2c3ccccc3C(C#N)(Cc3ccc4c(c32)OCO4)N1C(=O)c1ccccc1` (stereo not drawn), the GI50 is 25.4 µM (inactive) in the assay with CCRF-CEM; 37.6 µM (inactive) with HCT-116; 17.1 µM with HCT-15; 48 µM (inactive) with HT-29; 43.1 µM (inactive) in the assay on KM-20L2; 30.1 µM (inactive) with MOLT-4. Also, the GI50 in the assay with NCI-H522 was 10.5 µM (inactive); in the assay with OVCAR-3, 42.5 µM (inactive); in the assay with OVCAR-5 it was > 100 µM (inactive); with OVCAR-8, 84.9 µM (inactive); in the assay with SF-539, > 100 µM (inactive); in the assay on SK-MEL-28, 90.8 µM (inactive). The GI50 in the assay with SK-OV-3 was 35.3 µM (inactive); in the assay with SNB-19, 46.6 µM (inactive); in the assay on SNB-75 it was 50.6 µM (inactive); with SR it was 14.3 µM (inactive); in the assay with TK-10, > 100 µM (inactive).
Consider `O=C1Oc2cc3c(c4cccc1c24)OCN(c1ccccc1)C3`, for which the GI50 is 78.3 µM (inactive) in the assay on CAKI-1; 29.1 µM (inactive) in the assay with CCRF-CEM; > 100 µM (inactive) in the assay on HCT-116; 79.1 µM in the assay on HCT-15; > 100 µM (inactive) in the assay on HT-29; > 100 µM (inactive) with KM-20L2. Moreover, the GI50 with MOLT-4 is > 100 µM (inactive); in the assay on NCI-H522, 26.2 µM (inactive); in the assay with OVCAR-3, > 100 µM (inactive); in the assay with OVCAR-5, > 100 µM (inactive); in the assay on OVCAR-8, > 100 µM (inactive); in the assay with SK-MEL-28, > 100 µM (inactive). The GI50 in the assay on SK-OV-3 is > 100 µM (inactive); in the assay with SNB-19 it was > 100 µM (inactive); with SNB-75, > 100 µM (inactive); in the assay with SR, 44.8 µM (inactive); with TK-10, > 100 µM (inactive).
